Test results: US20110082133A1, “PYRIDONE COMPOUNDS” (priority 2008, published 2011)
Where a name gives a salt, the structure may show the parent alone.

Tests used:
Format in all cases: cell-based
rat EP1 receptor = target: T1, rat EP1 receptor (Rattus norvegicus, UniProt P70597); assay: Rat EP1 receptor agonistic/antagonistic action (intracellular Ca2+, FLIPR, HEK293 stable expression cells); conditions: inhibition of intracellular Ca2+ increasing action by PGE2
T1 construct: expressed in transfected cells
T1 sequence (P70597 1-405): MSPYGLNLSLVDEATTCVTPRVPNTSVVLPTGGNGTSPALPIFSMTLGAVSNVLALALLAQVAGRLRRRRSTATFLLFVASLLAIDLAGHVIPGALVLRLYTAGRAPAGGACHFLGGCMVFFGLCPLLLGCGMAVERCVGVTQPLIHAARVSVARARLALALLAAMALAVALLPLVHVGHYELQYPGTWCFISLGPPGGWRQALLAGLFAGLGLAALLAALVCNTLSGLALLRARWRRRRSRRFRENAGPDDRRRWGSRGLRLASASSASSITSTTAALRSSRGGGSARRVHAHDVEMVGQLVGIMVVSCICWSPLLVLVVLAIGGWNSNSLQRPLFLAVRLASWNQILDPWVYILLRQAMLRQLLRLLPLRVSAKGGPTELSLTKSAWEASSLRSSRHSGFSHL
Procedure: (§1) Using rat EP1 or rat EP3β receptor stable expression cells, the intracellular Ca^2+ concentration was measured using a fluorescent imaging plate reader (FLIPR manufactured by Molecular Devices Corporation). The agonistic activity was evaluated by the intracellular Ca^2+ increasing action of the test compound, and the antagonistic activity was evaluated by the inhibiting action of the test compound on the intracellular Ca^2+ increasing action by PGE2.
(§2) The cDNA of the rat EP 1 or EP3β receptor was subcloned into an expression vector (pcDNA3.1-V5-His-topo, manufactured by Invitrogen Corporation). This expression vector was introduced into HEK293 cells (American Type Culture Collection) to prepare a rat EP1 or EP3β receptor stable expression cell line. These cells were seeded onto a 96-well poly-D-lysin treated black wall clear bottom plate (manufactured by Becton, Dickinson and Company) at 2 to 3×10^4 cell/well, and used for the experiment the next day. The measurement of the intracellular Ca^2+ concentration was carried out by an FLIPR calcium 3 assay kit (manufactured by Molecular Devices Corporation). The culture medium of each well was removed by suction and replaced with a loading buffer (Hank's balanced salt solution containing 20 mM HEPES-NaOH (pH 7.4), 2.5 mM Probenecid, 0.1% bovine serum albumin, and a color), followed by incubating at room temperature for 3 hours and loading a color. For the evaluation of the agonistic action, the change in the intracellular Ca^2+ concentration was determined from the difference in the maximum value of the intracellular Ca^2+ concentration after the addition of the test compound and the value before the addition of the test compound. For the evaluation of the antagonistic action, after incubating the test compound for 5 minutes, PGE2 was added thereto to determine the change in the intracellular Ca^2+ concentration by PGE2.
(§3) Further, NE means that the action has no significance.

rat EP3β receptor = target: T2, rat EP3β receptor (Rattus norvegicus, UniProt P34980); assay: Rat EP3 receptor agonistic/antagonistic action (intracellular Ca2+, FLIPR, HEK293 stable expression cells); conditions: inhibition of intracellular Ca2+ increasing action by PGE2; read-out: RatEP3 Antagonistic Action IC50
T2 construct: expressed in transfected cells
T2 sequence (P34980 1-361 isoform P34980-2): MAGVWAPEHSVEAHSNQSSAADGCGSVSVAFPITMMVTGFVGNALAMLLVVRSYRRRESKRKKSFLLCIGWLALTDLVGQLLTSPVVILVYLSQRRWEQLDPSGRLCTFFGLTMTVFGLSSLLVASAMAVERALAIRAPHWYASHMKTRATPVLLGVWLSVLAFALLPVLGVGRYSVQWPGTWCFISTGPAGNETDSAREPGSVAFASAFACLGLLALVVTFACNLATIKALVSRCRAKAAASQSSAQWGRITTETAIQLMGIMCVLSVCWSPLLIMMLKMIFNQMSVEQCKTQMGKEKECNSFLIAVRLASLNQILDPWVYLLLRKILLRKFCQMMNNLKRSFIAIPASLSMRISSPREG
Procedure: as §1, §2, §3

[1] = test system: LPS-induced TNF-α production in THP-1 cells; assay: Inhibitory action on LPS-induced TNF-α production in THP-1 cells; conditions: Homo sapiens, 3 hours after LPS, ELISA
Procedure: Human monocytic cell line THP-1 cells were suspended in an assay medium (PRMI-1640 containing 10% fetal bovine serum, 100 unit/mL penicillin G sodium, and 100 μg/mL streptomycin sulfate), and seeded onto a 96-well plate at 1×10^5 cells/well. 50 μL/well of an assay medium containing a test compound was added thereto, followed by incubation at 37° C. for 30 minutes. Further, 50 μL/well of an assay medium containing 1 to 5 μg/mL of LPS was added thereto, and the TNF-α concentration in the assay medium of each well after 3 hours was measured. The measurement was carried out by means of a standard ELISA method. A 96-well plate which had been coated overnight with an anti-human TNF monoclonal antibody (clone: MAb1) (manufactured by Becton, Dickinson and Company) as a capture antibody was washed with a wash buffer (PBS containing 0.05% Tween-20), and PBS containing 10% fetal bovine serum was incubated at room temperature for 1 hour to perform blocking. After washing with a wash buffer, 100 μL/well of the assay medium to be measured was incubated at 4° C. overnight. As the standard material to be measured, a recombinant human TNF (manufactured by Becton, Dickinson and Company) was used. After washing with a wash buffer, 100 μL of a biotinylated anti-human TNF monoclonal antibody (clone: MAb11) as a detection antibody was treated at room temperature for 1 hour. After washing with a wash buffer, it was treated with 100 μL/well of an HRP-labeled Streptavidin (manufactured by Zymed Laboratories, Inc.) at room temperature for 30 minutes, and washed again. Treatment was conducted using 100 μL/well of a TMB (3,3′,5,5′-tetramethylbenzidine) substrate liquid at room temperature for 20 minutes in a dark room. A 2 M sulfuric acid was added thereto at 50 μL/well to stop the reaction, and an absorbance at 450 nm/570 nm was measured by means of a plate reader SPECRA max (manufactured by Molecular Devices Inc.).

## O=C(O)c1ccc(CCn2c(CN3CCc4ccc(F)cc43)c(Cl)cc(Cl)c2=O)cc1 [Example 9, 4-(2-{3,5-dichloro-6-[(6-fluoro-2,3-dihydro-1H-indol-1-yl)methyl]-2-oxopyridin-1(21-1)-yl}ethyl)benzoic acid]
Rat EP1 receptor
  IC50: 1 µM
Rat EP3β receptor
  IC50: > 10 µM
[1]
  IC50: 0.011 µM

## CCC[C@H]1CCCN1Cc1c(Cl)cc(Cl)c(=O)n1CCc1ccc(C(=O)O)cc1 [Example 17, 4-{2-[3,5-dichloro-2-oxo-6-{[(2S)-2-propylpyrrolidin-1-yl]methyl}pyridin-1(2H)-yl]ethyl}benzoic acid trifluoroacetate]
Rat EP1 receptor
  IC50: 2.1 µM
Rat EP3β receptor
  IC50: > 10 µM
[1]
  IC50: 0.0094 µM

## O=C(O)c1ccc(CCn2c(CNc3cccc(OC(F)(F)F)c3)c(Cl)cc(Cl)c2=O)cc1 [Example 107]
Rat EP1 receptor
  IC50: > 10 µM
Rat EP3β receptor
  IC50: > 10 µM
[1]
  IC50: 0.04 µM

## CN(Cc1c(Cl)cc(Cl)c(=O)n1CCc1ccc(C(=O)O)cc1)c1cccc(Cl)c1 [Example 160]
Rat EP1 receptor
  IC50: 2.7 µM
Rat EP3β receptor
  IC50: ≥ 10 µM
[1]
  IC50: 0.029 µM
